Laboratory results taken from ChEMBL document CHEMBL4765274, “The development of advanced structural framework as multi-target-directed ligands for the treatment of Alzheimer's disease” (Eur J Med Chem, 2020).
The source made the active and inactive calls. The calls are words filed in the database; no cut-off is given here.

What was measured:
[1] = Selectivity index, ratio of IC50 for inhibition of equine serum BChE to IC50 for inhibition of electric eel AChE
Acetylcholinesterase [2] = molecular target: T1, Acetylcholinesterase (Homo sapiens, UniProt P22303); assay: Inhibition of AChE in human erythrocytes by Ellman's method; format: cell-based, Erythrocyte
[3] = Antioxidant activity assessed as trolox equivalent of AAPH radical scavenging activity measured every min for 4 hrs by ORAC-FL assay relative to trolox; format: functional
[4] = Inhibition of Cu2+-induced amyloid beta (1 to 42 residues) (unknown origin) aggregation at 25 uM after 24 hrs by thioflavin-T fluorescence method relative to control
[5] = Disaggregation of Cu2+ induced amyloid beta (1 to 42 residues) (unknown origin) aggregation at 25 uM by thioflavin-T fluorescence method relative to control
PC-12 = assay: Neuroprotective activity against H2O2-induced cytotoxicity in rat PC-12 cells assessed as decrease in LDH activity at 1 to 10 uM preincubated for 2 hrs followed by H2O2 addition and measured after 24 hrs by LDH assay; format: functional, cell-based; settings: dose 1-10 µM, time 26.0 hrs
Mus musculus [6] = assay: Antialzheimer activity in scopolamine-induced Kunming mouse model of memory impairment assessed as Q30 bases ratio (raw data) in brain hippocampus at 5 mg/kg , po by illumina sequencing method (reference value: 93.53%); format: functional
Acetylcholinesterase [7] = molecular target: T1, Acetylcholinesterase; assay: Reversible inhibition of human AChE assessed as residual activity at 0.1 times of IC50 concentration after 120 mins relative to control
Cholinesterase = Cholinesterase (Homo sapiens, UniProt P06276); assay: Reversible inhibition of human BChE assessed as residual activity at 0.1 times of IC50 concentration after 240 mins relative to control
[8] = (§1) Binding affinity to amyloid beta (1 to 42 residues) (unknown origin) by biolayer interferometry analysis; parameters: species or system Homo sapiens
Homo sapiens = species on record: Homo sapiens; assay: as §1
[9] = Metal chelating activity assessed as Zn2+-compound complex formation in methanol at 37.5 uM by UV-Visible spectra analysis
[10] = Metal chelating activity assessed as Cu2+-compound complex formation in PBS buffer at pH 7.4 at 37.5 uM by UV-Visible spectra analysis
[11] = Metal chelating activity assessed as Zn2+-compound complex formation in PBS buffer at pH 7.4 at 37.5 uM by UV-Visible spectra analysis
[12] = Metal chelating activity assessed as Cu2+-compound complex formation in water at 37.5 uM by UV-Visible spectra analysis
[13] = Metal chelating activity assessed as Al3+-compound complex formation in water buffer at pH 7.4 at 37.5 uM by UV-Visible spectra analysis
HT-22 [14] = assay: Cytotoxicity against mouse HT-22 cells assessed as reduction in cell viability after 24 hrs by MTT assay; format: cell-based; settings: HT-22, 24 h
[15] = Effect on GFP expression in mouse HT-22 cells expressing pEGFP-N1 at 10 uM after 24 hrs by fluorescence microscopic method; format: ADME, cell-based; settings: ht-22, 24 h
[16] = Effect on GFP expression in mouse HT-22 cells expressing pEGFP-N1 at 10 uM after 24 hrs by flow cytometric analysis; format: ADME, cell-based; settings: ht-22, 24 h
HT-22 [17] = assay: Activation of ubiquitin-proteasome system in mouse HT-22 cells expressing pRK5-GFP-Tau P301L mutant assessed as increase in tau degradation by measuring reduction in GFP level at 2.5 to 20 uM after 24 hrs by Western blot analysis; format: cell-based; settings: filed as activator, dose 2.5-20 µM
HT-22 [18] = assay: Activation of ubiquitin-proteasome system in mouse HT-22 cells expressing pEGFP-N1-APP assessed as increase in APP degradation by measuring reduction in GFP level at 2.5 to 20 uM after 24 hrs by flow cytometric analysis; format: cell-based; settings: filed as activator, dose 2.5-20 µM
HT-22 [19] = assay: Activation of ubiquitin-proteasome system in mouse HT-22 cells expressing YFP-CLI assessed as reduction in GFP level at 10 uM after 24 hrs by fluorescence microscopic method; format: cell-based; settings: filed as activator
[20] = Effective permeability of compound at 100 ug/m by PAMPA-BBB assay; format: ADME; settings: read-out: Peff
[21] = Toxicity in 2 dpf zebra fish assessed as yolk sac absorption delay at 2.78 ug/ml after 3 days relative to control; parameters: species or system Danio rerio; settings: zebrafish, 72 h, at 2.78 µg/mL, time 3 day
[22] = Toxicity in 2 dpf zebra fish assessed as dark brown liver at 8.33 ug/ml after 3 days relative to control; parameters: species or system Danio rerio; settings: zebrafish, 72 h, at 8.33 µg/mL, time 3 day
[23] = Toxicity in 2 dpf zebra fish assessed as slow blood flow at 25 ug/ml after 3 days relative to control; format: tissue-based, Danio rerio; settings: zebrafish, 72 h, at 25 µg/mL, time 3 day
[24] = Toxicity in 2 dpf zebra fish assessed as misshapen brain at 25 ug/ml after 3 days relative to control; format: tissue-based, Danio rerio; settings: zebrafish, 72 h, at 25 µg/mL, time 3 day
[25] = Toxicity in 3 dpf zebra fish assessed as mortality at 3.125 ug/ml (reference value: 0%); parameters: species or system Danio rerio; settings: zebrafish, at 3.125 µg/mL, read-out: Activity
[26] = Toxicity in 3 dpf zebra fish assessed as mortality at 12.5 ug/ml (reference value: 0%); parameters: species or system Danio rerio; settings: zebrafish, at 12.5 µg/mL, read-out: Activity
[27] = Toxicity in 3 dpf zebra fish assessed as mortality at 25 ug/ml (reference value: 0%); parameters: species or system Danio rerio; settings: zebrafish, at 25 µg/mL, read-out: Activity
[28] = Toxicity in 3 dpf zebra fish assessed as pericardium edema at 1.56 ug/ml; parameters: species or system Danio rerio; settings: zebrafish; dose 1.56 µg/ml
Danio rerio [29] = species on record: Danio rerio; assay: Antialzheimer activity in Alcl3-induced zebra fish AD model assessed as increase in motility at 0.78 ug/ml relative to control; format: functional; settings: dose 0.78 µg/ml
Danio rerio [30] = species on record: Danio rerio; assay: Antialzheimer activity in Alcl3-induced zebra fish AD model assessed as increase dyskinesia recovery rate at 0.26 ug/ml relative to control; format: functional; settings: dose 0.26 µg/ml
Danio rerio [31] = species on record: Danio rerio; assay: Antialzheimer activity in amyloid beta (1 to 40 residues)-induced zebra fish AD model assessed as reduction in vascular injury at 0.09 ug/ml relative to control; format: functional; parameters: scale not given: the % may be the effect or the level left; settings: dose 0.09 µg/ml
[32] = Toxicity in Kunming mouse assessed as abnormal behavior up to 5000 mg/kg, po after 14 days; format: organism-based; settings: in vivo, 336 h, time 14 day
Mus musculus [33] = assay: Antialzheimer activity in scopolamine-induced Kunming mouse model of memory impairment assessed as latency time at 20 mg/kg , po by step-down passive avoidance test (reference value: 125.65 sec); format: functional
Mus musculus [34] = assay: Antialzheimer activity in scopolamine-induced Kunming mouse model of memory impairment assessed as GC bases ratio (QC data) in brain hippocampus at 5 mg/kg , po by illumina sequencing method (reference value: 53.64%); format: functional
Mus musculus [35] = assay: Antialzheimer activity in scopolamine-induced Kunming mouse model of memory impairment assessed as uniquely mapped in brain hippocampus at 5 mg/kg , po by illumina sequencing method (reference value: 94.54%); format: functional
[36] = Drug metabolism in mouse blood assessed as metabolite formation by UPLC-TOF analysis; format: ADME, tissue-based
[37] = Drug metabolism in mouse feces assessed as metabolite formation by UPLC-TOF analysis; format: ADME

T1 sequence (P22303 whole entry): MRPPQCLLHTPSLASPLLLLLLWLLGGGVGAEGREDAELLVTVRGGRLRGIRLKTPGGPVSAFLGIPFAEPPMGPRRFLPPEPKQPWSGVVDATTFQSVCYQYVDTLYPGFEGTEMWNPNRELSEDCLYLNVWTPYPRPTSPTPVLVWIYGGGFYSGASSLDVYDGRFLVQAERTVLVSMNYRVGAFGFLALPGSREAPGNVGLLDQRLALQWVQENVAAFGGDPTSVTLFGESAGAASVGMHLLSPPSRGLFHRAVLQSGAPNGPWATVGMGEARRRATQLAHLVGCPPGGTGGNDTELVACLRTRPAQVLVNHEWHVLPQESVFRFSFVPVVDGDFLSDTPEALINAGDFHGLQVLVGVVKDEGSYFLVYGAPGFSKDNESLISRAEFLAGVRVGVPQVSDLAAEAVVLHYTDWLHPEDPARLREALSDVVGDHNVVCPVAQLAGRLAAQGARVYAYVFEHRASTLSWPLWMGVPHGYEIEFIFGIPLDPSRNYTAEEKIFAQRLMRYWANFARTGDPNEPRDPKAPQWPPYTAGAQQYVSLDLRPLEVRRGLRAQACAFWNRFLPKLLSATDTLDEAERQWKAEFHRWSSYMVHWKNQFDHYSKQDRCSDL
Chain of Cholinesterase (P06276 whole entry, the tested form may be a part): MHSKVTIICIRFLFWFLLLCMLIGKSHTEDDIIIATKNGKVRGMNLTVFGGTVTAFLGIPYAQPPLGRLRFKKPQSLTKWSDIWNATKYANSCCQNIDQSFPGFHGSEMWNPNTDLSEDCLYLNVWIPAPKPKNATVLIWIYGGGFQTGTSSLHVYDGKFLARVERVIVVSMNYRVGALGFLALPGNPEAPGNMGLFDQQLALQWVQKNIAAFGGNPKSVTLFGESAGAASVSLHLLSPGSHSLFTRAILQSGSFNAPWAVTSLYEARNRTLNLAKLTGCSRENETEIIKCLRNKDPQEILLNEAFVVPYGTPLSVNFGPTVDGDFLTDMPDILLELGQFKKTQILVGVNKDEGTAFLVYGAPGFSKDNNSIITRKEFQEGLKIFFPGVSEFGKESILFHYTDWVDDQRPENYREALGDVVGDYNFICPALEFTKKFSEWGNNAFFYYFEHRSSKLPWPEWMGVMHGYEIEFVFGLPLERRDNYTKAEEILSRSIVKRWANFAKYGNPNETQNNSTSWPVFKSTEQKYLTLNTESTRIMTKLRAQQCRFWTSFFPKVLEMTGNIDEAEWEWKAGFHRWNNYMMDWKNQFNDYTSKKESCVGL

Question: Which Ratio IC50 [1] does the source give for `CCN(CCCCOc1ccc(-c2cc(=O)c3c(O)cc(OCCCCN(CC)Cc4ccccc4)cc3o2)cc1)Cc1ccccc1` here?
Answer: The Ratio IC50 was 2.6.

Question: And the IC50 (Acetylcholinesterase [2])?
Answer: The IC50 was 0.36 µM.

Question: What about the fold change (FC) [3] of the same compound?
Answer: Its fold change (FC) is 1.2.

Question: And the inhibition [4]?
Answer: Its inhibition is 81.3%.

Question: What about the Activity [5] of the same compound?
Answer: The Activity was 81.3%.

Question: What about the Activity (PC-12) of the same compound?
Answer: Its Activity is “Active”.

Question: What about the Activity (Mus musculus [6]) of the same compound?
Answer: Its Activity is 93.58%.

Question: And the Activity (Acetylcholinesterase [7])?
Answer: The Activity was 86.6%.

Question: What about the Activity (Cholinesterase) of the same compound?
Answer: Its Activity is 97.6%.

Question: And the Kd [8]?
Answer: The Kd was 1.2 µM.

Question: And the Activity (Homo sapiens)?
Answer: Its Activity is “Dose-dependent effect”.

Question: And the Activity [9]?
Answer: The Activity was “inactive”.

Question: And the Activity [10]?
Answer: The Activity was “Active”.

Question: And the Activity [11]?
Answer: The Activity was “inactive”.

Question: And the Activity [12]?
Answer: Its Activity is “inactive”.

Question: What about the Activity [13] of the same compound?
Answer: Its Activity is “inactive”.

Question: What about the IC50 (HT-22 [14]) of the same compound?
Answer: The IC50 was 39.7 µM.

Question: And the Activity [15]?
Answer: Its Activity is “Non-Toxic”.

Question: What about the Activity [16] of the same compound?
Answer: The Activity was “Non-Toxic”.

Question: What about the Activity (HT-22 [17]) of the same compound?
Answer: The Activity was “Active”.

Question: And the Activity (HT-22 [18])?
Answer: Its Activity is “Active”.

Question: What about the Activity (HT-22 [19]) of the same compound?
Answer: Its Activity is “Active”.

Question: What about the Papp at 100 ug/m [20] of the same compound?
Answer: The Papp at 100 ug/m was 1.68 ×10⁻⁶ cm/s.

Question: What about the Activity [21] of the same compound?
Answer: The Activity was 26.7%.

Question: And the Activity [22]?
Answer: The Activity was 70%.

Question: What about the Activity [23] of the same compound?
Answer: The Activity was 46.7%.

Question: What about the Activity [24] of the same compound?
Answer: The Activity was 76.7%.

Question: What about the mortality at 3.125 ug/ml [25] of the same compound?
Answer: The mortality at 3.125 ug/ml was 100%.

Question: What about the mortality at 12.5 ug/ml [26] of the same compound?
Answer: Its mortality at 12.5 ug/ml is 100%.

Question: What about the mortality at 25 ug/ml [27] of the same compound?
Answer: Its mortality at 25 ug/ml is 100%.

Question: And the Activity [28]?
Answer: Its Activity is “Toxic”.

Question: And the Activity (Danio rerio [29])?
Answer: The Activity was 84%.

Question: And the Activity (Danio rerio [30])?
Answer: The Activity was 80%.

Question: And the Activity (Danio rerio [31])?
Answer: Its Activity is 9%.

Question: What about the Activity [32] of the same compound?
Answer: Its Activity is “Non-Toxic”.

Question: What about the Time (Mus musculus [33]) of the same compound?
Answer: The Time was 245.98 s.

Question: And the Activity (Mus musculus [34])?
Answer: Its Activity is 59.05%.

Question: And the Activity (Mus musculus [35])?
Answer: Its Activity is 94.34%.

Question: And the Drug metabolism [36]?
Answer: The Drug metabolism was “Metabolite_Detected”.

Question: And the Drug metabolism [37]?
Answer: Its Drug metabolism is “Metabolite_Detected”.
